In the Bradley open melting point set (2014):
“And” between values parts separate entries of the source, which are not always exact repeats. Equal entries are not always repeated. Structures can show the parent of a compound that is named as a salt.

melting point | Structure (SMILES)
-116 °C | CCCCS [Butane-1-thiol]
58 °C | CCCCOC(=O)c1ccc(N)cc1 [Butyl 4-aminobenzoate]
68.5 °C | CCCCOC(=O)c1ccc(O)cc1 [Butyl 4-hydroxybenzoate]
-96 °C | CCCC=O [Butyraldehyde]
-5 °C | CCCC(=O)O [Butyric acid]
113 °C | C=C1C(C[C@@H](O)C[C@@H]1O)=CC=C2/CCC[C@]3(C)[C@H](CC[C@@H]23)[C@H](C)CCCC(C)(C)O [Calcitriol]
180 °C | CC1(C)[C@H]2CC[C@]1(C)C(=O)C2 [Camphor]
16.3 °C | CCCCCCCC(=O)O [Caprylic acid]
247 °C | c1ccc2c(c1)[nH]c1ccccc12 [Carbazole]
204 °C | C[C@@](Cc1ccc(O)c(O)c1)(NN)C(=O)O [Carbidopa]
140 °C | CC1=C(C(=O)O)N2C(=O)[C@@H](NC(=O)[C@H](N)C3=CCC=CC3)[C@H]2SC1 [Cefradine]
222 °C | CON=C(/c1ccco1)C(=O)N[C@@H]3C(=O)N2C(=C(COC(N)=O)CS[C@@H]23)C(=O)O [Cefuroxime]
76 °C | COc1ccc(C=CC(=O)c2ccccc2)cc1 [Chalcone, 4-methoxy-]
-58 °C | C[Si](C)(C)Cl [Chloro(trimethyl)silane]
345 °C | O=C(O)c1cc(=O)[nH]c(=O)[nH]1 [Cholergol]
148 °C | CC(C)CCC[C@@H](C)[C@H]1CC[C@H]2[C@@H]3CC=C4C[C@@H](O)CC[C@]4(C)[C@H]3CC[C@]12C [Cholesterol]
130 °C | Clc1cccc(Cl)c1NC1=NCCN1 [Clonidine]
210 °C | CCC(C)CCCC(=O)N[C@@H](CCN)C(=O)N[C@H](C(=O)N[C@@H](CCN)C(=O)N[C@H]1CCNC(=O)[C@H]([C@@H](C)O)NC(=O)[C@H](CCN)NC(=O)[C@H](CCN)NC(=O)[C@H](CC(C)C)NC(=O)[C@@H](CC(C)C)NC(=O)[C@H](CCN)NC1=O)[C@@H](C)O (some centres undefined) [Colistin]
225 °C | C[C@]12CCC(=O)C=C1CC[C@@H]1[C@@H]2C(=O)C[C@@]2(C)[C@H]1CC[C@]2(O)C(=O)CO [Cortisone]
7 °C | C1CCCCC1 [Cyclohexane]
-32 °C and -31 °C | O=C1CCCCC1 [Cyclohexanone]
330 °C | NC1(C(=O)O)CCCC1 [Cycloleucine]
-94 °C | C1CCCC1 [Cyclopentane]
-19 °C | OC1CCCC1 [Cyclopentanol]
-135 °C | C1=CCCC1 [Cyclopentene]
147 °C | NC1CONC1=O (centres undefined) [Cycloserine]

melting point | Structure (SMILES)
274 °C | N[C@H](Cc1ccccc1)C(=O)O [D-Phenylalanine]
156 °C | O=C[C@@H](O)[C@H](O)[C@H](O)CO [D-arabinose]
235 °C | N=C(N)NCCC[C@@H](N)C(=O)O [D-arginine]
167 °C | O=C[C@H](O)[C@@H](O)[C@@H](O)[C@H](O)CO [D-galactose]
151 °C | O=C[C@H](O)[C@@H](O)[C@H](O)[C@H](O)CO [D-glucose, anhydrous]
60 °C | O[C@@H]1CO[C@H]2[C@@H]1OC[C@@H]2O [D-isosorbide]
102 °C | O=C(O)C[C@@H](O)C(=O)O [D-malic acid]
130 °C | OC[C@H]1OC(O)[C@@H](O)[C@@H](O)[C@@H]1O (stereo partly drawn) [D-mannose]
84 °C | O=C[C@H](O)[C@H](O)[C@H](O)CO [D-ribose]
135 °C | O=C(CO)[C@@H](O)[C@@H](O)[C@H](O)CO [D-tagatose]
168 °C | O=C(O)[C@@H](O)[C@H](O)C(=O)O [D-tartaric acid]
149 °C | OC1OC[C@@H](O)[C@H](O)[C@H]1O (stereo partly drawn) [D-xylose]
242 °C | Cc1c2oc3c(C)ccc(C(=O)NC4C(=O)NC(C(C)C)C(=O)N5CCCC5C(=O)N(C)CC(=O)N(C)C(C(C)C)C(=O)OC4C)c3nc-2c(C(=O)NC2C(=O)NC(C(C)C)C(=O)N3CCCC3C(=O)N(C)CC(=O)N(C)C(C(C)C)C(=O)OC2C)c(N)c1=O (centres undefined) [Dactinomycin]
-66 °C | C=CCCCCCCCC [Dec-1-ene]
31 °C | CCCCCCCCCC(=O)O [Decanoic acid]
142 °C | C[C@]12CC[C@H]3[C@@H](CCC4=CC(=O)CC[C@@]43C)[C@@H]1CC[C@@H]2C(=O)CO [Deoxycorticosterone]
1 °C | CCOC(=O)/C=C/C(=O)OCC [Diethyl (2E)-but-2-enedioate]
-41 °C | CCOC(=O)C(=O)OCC [Diethyl oxalate]
249 °C | C[C@H]1O[C@@H](O[C@H]2[C@@H](O)C[C@H](O[C@H]3[C@@H](O)C[C@H](O[C@H]4CC[C@@]5(C)[C@H](CC[C@@H]6[C@@H]5C[C@@H](O)[C@]5(C)C(C7=CC(=O)OC7)CC[C@]65O)C4)O[C@@H]3C)O[C@@H]2C)C[C@H](O)[C@@H]1O (some centres undefined) [Digoxin]
-138 °C | COC [Dimethyl ether]
-62 °C | COC(=O)CC(=O)OC [Dimethyl malonate]
26.5 °C | COC(=O)CCCCCCCCC(=O)OC [Dimethyl sebacate]
186 °C | CN(C)CC(=O)O [Dimethylglycine]
140 °C | Cc1ncc([N+](=O)[O-])n1C [Dimetridazole]
66 °C | OC(c1ccccc1)c1ccccc1 [Diphenylmethanol]
-133 °C | [SiH3][SiH3] [Disilane]

melting point | Structure (SMILES)
159 °C | CN(C)C(=O)Nc1ccc(Cl)c(Cl)c1 [Diuron]
232 °C | CC(=O)O[C@@]12CO[C@@H]1C[C@H](O)[C@@]1(C)C(=O)[C@H](O)C3=C(C)[C@@H](OC(=O)[C@H](O)[C@@H](NC(=O)OC(C)(C)C)c4ccccc4)C[C@@](O)([C@@H](OC(=O)c4ccccc4)[C@H]21)C3(C)C [Docetaxel]
129 °C | O=C(O)CCCCCCCCCCC(=O)O [Dodecanedioic acid]
132 °C | CCCCCCCCCCCC[N+](C)(C)[O-] [Dodecyl(dimethyl)amine oxide]
-7 °C | CCCCCCCCCCCCc1ccccc1 [Dodecylbenzene]
290 °C | COc1cc2nc(N3CCN(C(=O)C4COc5ccccc5O4)CC3)nc(N)c2cc1OC (centres undefined) [Doxazosin]
201 °C | C[C@H]1c2cccc(O)c2C(=O)C2=C(O)[C@]3(O)C(=O)C(C(N)=O)=C(O)[C@@H](N(C)C)[C@@H]3[C@@H](O)[C@@H]21 [Doxycycline]
212 °C | CNC[C@H](O)c1ccc(O)c(O)c1 [Epinephrine]
176 °C | C[C@]12CC[C@@H]3c4ccc(O)cc4CC[C@H]3[C@@H]1CC[C@@H]2O [Estradiol]
183 °C | C#C[C@]1(O)CC[C@H]2[C@@H]3CCc4cc(O)ccc4[C@H]3CC[C@@]21C [Ethinyl Estradiol]
138 °C | CCOC(=O)C(C#N)=Cc1ccc(Cl)cc1 [Ethyl 3-(4-chlorophenyl)-2-cyanoacrylate]
-43 °C | CCOC(=O)CC(C)=O [Ethyl 3-oxobutanoate]
89 °C | CCOC(=O)c1ccc(N)cc1 [Ethyl 4-aminobenzoate]
82 °C | CCOC(=O)C1=CC(C)N=N1 (centres undefined) [Ethyl 5-methyl-1H-pyrazole-3-carboxylate]
77 °C | CCOC(=O)/C=C/c1ccccc1N [Ethyl (2E)-3-(2-aminophenyl)acrylate]
124 °C | CCOC(=O)/C(C#N)=C\c1ccc(-c2ccc(C)cc2)o1 [Ethyl (2Z)-2-cyano-3-[5-(4-methylphenyl)-2-furyl]acrylate]
162 °C | CCOC(=O)/C(C#N)=N\Nc1ccc(Cl)cc1 [Ethyl (2Z)-[(4-chlorophenyl)hydrazono](cyano)acetate]
156 °C | CCOC(=O)/C(C#N)=N\Nc1cccc([N+](=O)[O-])c1 [Ethyl (2Z)-cyano[(3-nitrophenyl)hydrazono]acetate]
65 °C | CCOC(=O)Nc1ccc(C)cc1[N+](=O)[O-] [Ethyl (4-methyl-2-nitrophenyl)carbamate]
-93 °C | CCCC(=O)OCC [Ethyl butyrate]
49 °C | CCOC(N)=O [Ethyl carbamate]
103 °C | CC(=O)OCC(CCn1cnc2cnc(N)nc21)COC(C)=O [Famciclovir]
164 °C | N/C(N)=N/c1nc(CSCCC(N)=N/S(N)(=O)=O)cs1 [Famotidine]
152 °C | NC(=O)OCC(COC(N)=O)c1ccccc1 [Felbamate]
150 °C | O=c1[nH]c(=O)n([C@H]2C[C@H](O)[C@@H](CO)O2)cc1F [Floxuridine]
134 °C | O=C(O)c1ccccc1Nc1cccc(C(F)(F)F)c1 [Flufenamic Acid]

Structure (SMILES) | melting point
Brc1ccccc1 [Bromobenzene] | -31 °C
CCC(C)C1(CC)C(=O)NC(=O)NC1=O (centres undefined) [Butabarbital] | 166 °C
CCCCc1ccccc1 [Butylbenzene] | -88 °C
CC[C@@]1(O)C(=O)OCc2c1cc1n(c2=O)Cc2cc3ccccc3nc2-1 [Camptothecin] | 276 °C
[C-]#[O+] [Carbon monooxide] | -205 °C
NNC(=O)NN [Carbonohydrazide] | 158 °C
Clc1ccccc1 [Chlorobenzene] | -45 °C
COC(=O)[C@@H]1C2CCC(C[C@@H]1OC(=O)c1ccccc1)N2C (some centres undefined) [Cocaine] | 195 °C
COc1ccc2c3c1O[C@H]1[C@@H](O)C=C[C@H]4[C@@H](C2)N(C)CC[C@@]341 [Codeine] | 155 °C
CC(C)(C)OOC(C)(C)C [Di-tert-butyl peroxide] | -40 °C
COc1ccc2c3c1O[C@H]1[C@@H](O)CC[C@H]4[C@@H](C2)N(C)CC[C@@]341 [Dihydrocodeine] | 112 °C
COP(=O)(OC)C(O)C(Cl)(Cl)Cl (centres undefined) [Dimethyl (2,2,2-trichloro-1-hydroxyethyl)phosphonate] | 83 °C
CC(N)=S [Ethanethioamide] | 115 °C
COc1cc(C(=O)O)cc(OC)c1OC [Eudesmic acid] | 172 °C
C=C1C[C@@H]2[C@H](CC[C@]3(C)C(=O)CC[C@@H]23)[C@@]2(C)C=CC(=O)C=C12 [Exemestane] | 155 °C
COP(=S)(OC)Oc1cc(Cl)c(Cl)cc1Cl [Fenchlorphos] | 38 °C
